Columns and labels:
[1] = system: RAW264.7 murine macrophage-like cells; conditions: RAW264.7 cells stimulated with LPS; cited from earlier work
GPR84 [2] = target: T1, GPR84 (Homo sapiens, UniProt Q9NQS5); conditions: literature reports; cited from earlier work
T1 construct: expressed in transfected cells

human neutrophils = test: Human neutrophil migration assay (embelin-induced chemotaxis); format: cell-based; conditions: Neutrophil; neutrophils from human buffy coats; embelin at EC80
In short: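 Neutrophils freshly isolated from human buffy coats were preincubated with compound for 30 min at 37 °C. They then migrated 1 h at 37 °C through 5.0 μm transwell membranes toward embelin at EC80, with compound present in both compartments. Migrated cells in the receiver well were quantified by ATPlite luminescence.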

GPR84 [3] = target: T1, GPR84; test: GPR84 [35S]GTPγS binding assay, Tris buffer (alternative); format: biochemical; conditions: 3,3′ di indolylmethane at EC80, membranes from stable cell line over expressing GPR84, read-out: Alternative GPR84 assay GTPγS IC50 (GPR84-2)
Protocol: 1.1. Cell Based Assay: GTp-γ S Binding Assay.
The following assay can be used for determination of GPR84 activation. The [^35S]GTPγS binding assay measures the level of G protein activation following agonist occupation of a GPCR, by determining the binding of the non-hydrolysable analog [^35S]GTPγS to Gα subunits.
Alternatively, the assay is performed in a 96 well plate where the following reagents are added. First 50 μL compound is added into the assay plate, followed by addition of 20 μL 3,3′ di indolylmethane at EC80 concentration (concentration which gives 80% of the activity of GPR84). In a last step, 30 μL of a mixture consisting of membranes-GTPγS-SpA beads is added [mixture consists of 20 μg/well membranes derived from stable cell line over expressing GPR84 (membranes are pre-incubated with 0.1 μM GDP for 15 min at 4° C.), 0.1 nM [^35S]GTPγS (Perkin Elmer, NEG030) and 0.5 mg/well PVT-WGA SpA beads (Perkin Elmer, RPNQ0001)]. All components are diluted in assay buffer containing 20 mM Tris pH 7.5; 5 mM MgCl2; 250 mM NaCl; 0.05% BSA; 75 ug/mL saponin Reactions are incubated for 90 min at room temperature followed by centrifugation at 2000 rpm during 15 min. Plates are read on a Topcount reader (Perkin Elmer) immediately after centrifugation (readout time, 1 min/well).

T1 sequence (Q9NQS5 whole entry): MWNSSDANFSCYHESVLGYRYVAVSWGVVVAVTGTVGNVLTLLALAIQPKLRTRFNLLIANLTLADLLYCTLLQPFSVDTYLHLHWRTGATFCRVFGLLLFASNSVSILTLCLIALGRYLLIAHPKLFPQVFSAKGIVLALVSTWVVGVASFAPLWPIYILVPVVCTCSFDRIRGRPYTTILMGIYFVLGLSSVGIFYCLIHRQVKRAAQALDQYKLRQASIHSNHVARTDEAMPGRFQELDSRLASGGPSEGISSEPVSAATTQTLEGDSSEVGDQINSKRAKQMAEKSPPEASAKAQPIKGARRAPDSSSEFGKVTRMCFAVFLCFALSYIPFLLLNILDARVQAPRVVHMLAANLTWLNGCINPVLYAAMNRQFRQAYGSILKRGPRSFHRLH

For `CCCCCCCCCC(=O)O` [capric acid], the “secretion of interleukin-12 p40 subunit (IL-12 p40)” value (from here on “secretion”) [1] is listed as “dose dependently increased”.
For `c1ccc2c(Cc3c[nH]c4ccccc34)c[nH]c2c1` [3,3′-diindolylmethane], the GPR84 agonist activity (GPR84 [2]) is given as “some GPR84 agonist activity”.
For `CCCCCCCCNc1cc(=O)[nH]c(=O)[nH]1` [6-n-octylaminouracil], the GPR84 agonist activity (GPR84 [2]) is listed as “some GPR84 agonist activity”.
For `CCCCCCCCCCC(=O)O` [undecanoic acid], the “secretion” value [1] is listed as “dose dependently increased”.
For `CCCCCCCCCCCC(=O)O` [lauric acid], the “secretion” value [1] is listed as “dose dependently increased”.
In the case of `O=c1nc(OCC2COc3ncccc3O2)cc2n1CCc1cc(C#CC3(O)CCCC3)ccc1-2` (centres unmarked) [compound 142, 2-(2,3-Dihydro-[1,4]dioxino[2,3-b]pyridin-2-ylmethoxy)-9-(1-hydroxy-cyclopentylethynyl)-6,7-dihydro-pyrimido[6,1-a]isoquinolin-4-one], the IC50 (human neutrophils) is reported as 0.01 to 100 nM and the IC50 (GPR84 [3]) is reported as 0.01 to 100 nM.
In the case of `O=c1nc(OCC2COc3ncccc3O2)cc2n1CCc1cc(C#Cc3cccnc3)ccc1-2` (centres unmarked) [compound 131, 2-(2,3-dihydro-[1,4]dioxino[2,3-b]pyridin-2-ylmethoxy)-9-pyridin-3-ylethynyl-6,7-dihydro-pyrimido[6,1-a]isoquinolin-4-one], the IC50 (human neutrophils) is reported as 0.01 to 100 nM and the IC50 (GPR84 [3]) is reported as 100 to 500 nM.
`N#Cc1ccccc1-c1ccc2c(c1)CCn1c-2cc(OCC2COc3ncccc3O2)nc1=O` (centres unmarked) [compound 125, 2-[2-(2,3-Dihydro-[1,4]dioxino[2,3-b]pyridin-2-ylmethoxy)-4-oxo-6,7-dihydro-4H-pyrimido[6,1-a]isoquinolin-9-yl]-benzonitrile] showed an IC50 (human neutrophils) of 0.01 to 100 nM and an IC50 (GPR84 [3]) of 100 to 500 nM.

— US9708312B2, “Dihydropyrimidinoisoquinolinones and pharmaceutical compositions thereof for the treatment of inflammatory disorders (GPR84 antagonists)” (GALAPAGOS NV, priority 2012, dated 2017)
